Results as given in the supplement of paper PMC10307832.

Legend:
Experiment in all cases: relative viability (nuclei count vs DMSO), 5 days (fraction); higher = more cells survive
XMD13-2 + Crizotinib = compound: C1CC1C(=O)NC2=NNC3=C2C=CC(=C3)C4=CC(=CC=C4)C(=O)NC5CC5 [XMD13-2] + C[C@@H](Oc1cc(-c2cnn(C3CCNCC3)c2)cnc1N)c1c(Cl)ccc(F)c1Cl [Crizotinib] (partner 1 µM)
How it was run: (§1)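 Lung cancer cell lines were pin-tool dosed in 1536-well plates on the day after seeding, with either a lone drug or a fixed anchor-drug dose plus five library-drug doses (not always all listed) in √10 steps. Nuclei were counted on 4× images after 5 days. Relative viability is the ratio of treated-well to vehicle-well nuclei counts, with each value a median of duplicate plates.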

XMD13-2 + Vorinostat = compound: C1CC1C(=O)NC2=NNC3=C2C=CC(=C3)C4=CC(=CC=C4)C(=O)NC5CC5 [XMD13-2] + O=C(CCCCCCC(=O)Nc1ccccc1)NO [Vorinostat] (partner 1 µM)
How it was run: as §1

ALW-II-49-7 + Crizotinib = compound: Cc1ccc(C(=O)Nc2cccc(C(F)(F)F)c2)cc1Nc1cncc(C(N)=O)c1 [ALW-II-49-7] + C[C@@H](Oc1cc(-c2cnn(C3CCNCC3)c2)cnc1N)c1c(Cl)ccc(F)c1Cl [Crizotinib] (partner 1 µM)
How it was run: as §1

Dasatinib + Crizotinib = compound: Cc1nc(Nc2ncc(C(=O)Nc3c(C)cccc3Cl)s2)cc(N2CCN(CCO)CC2)n1 [Dasatinib] + C[C@@H](Oc1cc(-c2cnn(C3CCNCC3)c2)cnc1N)c1c(Cl)ccc(F)c1Cl [Crizotinib] (partner 1 µM)
How it was run: as §1

Cell Line	relative viability (XMD13-2 + Crizotinib; first compound 0.05 µM)	relative viability (XMD13-2 + Crizotinib; first compound 0.1581 µM)	relative viability (XMD13-2 + Crizotinib; first compound 0.5 µM)	relative viability (XMD13-2 + Crizotinib; first compound 1.581 µM)	relative viability (XMD13-2 + Crizotinib; first compound 5 µM)	relative viability (XMD13-2 + Vorinostat; first compound 0.05 µM)	relative viability (XMD13-2 + Vorinostat; first compound 0.1581 µM)	relative viability (XMD13-2 + Vorinostat; first compound 0.5 µM)	relative viability (XMD13-2 + Vorinostat; first compound 1.581 µM)	relative viability (XMD13-2 + Vorinostat; first compound 5 µM)	relative viability (ALW-II-49-7 + Crizotinib; first compound 0.08 µM)	relative viability (ALW-II-49-7 + Crizotinib; first compound 0.253 µM)	relative viability (ALW-II-49-7 + Crizotinib; first compound 0.8 µM)	relative viability (ALW-II-49-7 + Crizotinib; first compound 2.53 µM)	relative viability (ALW-II-49-7 + Crizotinib; first compound 8 µM)	relative viability (Dasatinib + Crizotinib; first compound 0.005 µM)	relative viability (Dasatinib + Crizotinib; first compound 0.01581 µM)	relative viability (Dasatinib + Crizotinib; first compound 0.05 µM)	relative viability (Dasatinib + Crizotinib; first compound 0.1581 µM)	relative viability (Dasatinib + Crizotinib; first compound 0.5 µM)
NCI-H358	0.77	0.546	0.736	0.423	0.324	0.751	0.687	0.692	0.489	0.442	0.616	0.412	0.486	0.435	0.539	0.507	0.437	0.349	0.282	0.194
SW 900						0.721	0.42	0.501	0.45	0.623										
NCI-H2087	0.821	0.776	0.913	0.83	0.897	0.686	0.902	0.729	0.898	0.853	1.07	0.843	0.957	0.758	0.851	0.858	0.938	0.946	0.863	0.639
COR-L 105	1	0.843	0.881	0.701	0.927	0.781	0.929	1.01	0.79	0.847	0.737	0.805	0.864	0.653	0.72	0.71	0.59	0.528	0.286	0.285
LCLC-97TM1	0.432	0.318	0.265	0.374	0.256	0.769	0.551	0.747	0.532	0.301	0.609	0.262	0.532	0.313	0.297	0.336	0.485	0.307	0.238	0.146
NCI-H520	0.962	0.681	0.682	0.672	0.403	0.799	0.743	0.698	0.869	0.414	0.751	0.638		0.682	0.723	0.656	0.442	0.419	0.144	0.138
NCI-H1993	0.913	0.844	0.935	0.768	0.69	1.2	0.814	0.769	0.613	0.907	0.744	1.01	0.884	1.06	1.06	0.881	0.658	0.579	0.501	0.465
NCI-H1437	0.874	1.02	0.902	0.886	1.07	0.879	0.815	0.756	0.793	0.786	0.897	0.865		0.869	0.896	0.868	0.894	1.1	0.79	0.251
